According to US20060052282A1, “Diagnostic and therapeutic means for pathologies associated with alpha 2 subunit of the na, k pump” (priority 2002, published 2006):

Key:
HeLa cells = experiment: Ouabain treatment of transfected HeLa cells (survival, MTT cell viability); assay type: cell-based, human; settings: 1 μM ouabain
Experimental: Constructs were transfected by calcium phosphate (HeLa cells) following standard procedures or by Lipofectamine (COS-7 cells), (Gibco, Invitrogene Co., Carlsbad, Calif., USA).
Cell viability was measured with the MTT (13) reduction assay after 12, 24, 36, 48 and 60 hours. Each experiment was made in triplicate and statistical analysis was done by Student's t-test (homoscedastic).
(§1) As all vertebrate cells present Na,K ATPase activity, the endogenous Na,K pump activity of HeLa cells was quenched to test the ion transport performance of the exogenous mutant forms. A site-directed mutagenesis was carried out to abolish the natural ouabain sensitivity of the ATP1A2 construct by mutagenizing two amino acids, Q116R and N127D, in the first extracellular loop that is part of the ouabain binding site of Na,K ATPase (15).
Constructs were transfected by calcium phosphate (HeLa cells) following standard procedures.
Cell viability was measured with the MTT reduction assay after 24,48 and 72 hours of 1 μM ouabain challenge. We performed two independent experiments and in each experiment, datapoints are in triplicate.

HEK293 = experiment: Ouabain treatment of transfected HEK293 cells; assay type: cell-based, human; settings: 1 μM ouabain; pA2Oua^r-wt versus mock transfected cells
Experimental: as §1

C[C@@H]1O[C@@H](O[C@H]2C[C@@H](O)[C@]3(CO)[C@H]4[C@H](O)C[C@]5(C)[C@@H](C6=CC(=O)OC6)CC[C@]5(O)[C@@H]4CC[C@]3(O)C2)[C@H](O)[C@H](O)[C@H]1O [ouabain]
cell survival in ouabain-containing media (HeLa cells; HeLa cells transfected with ouabain-resistant ATP1A2 construct pA2Oua^r-wt): can survive and grow | cell survival under ouabain treatment (HeLa cells; HeLa cells transfected with ouabain-resistant T378N (AHC) ATP1A2 construct): did not survive | cell survival under ouabain treatment (HeLa cells; HeLa cells transfected with pA2Oua^r-P764 (L764P)): failed to survive | cell survival under ouabain treatment (HeLa cells; HeLa cells transfected with pA2Oua^r-R887 (W887R)): failed to survive | time to death of cells in ouabain-containing media (HeLa cells; mock transfected HeLa cells (wild-type ATP1A2, non-ouabain resistant)): 36 to 48 h | cell survival under ouabain treatment (HeLa cells; simulated heterozygous state, equal amount of wild-type and T378N mutant cDNAs): intermediate behaviour | cell survival under ouabain treatment (HeLa cells; simulated heterozygous states, equal amounts of wild-type and mutant (P764 or R887) constructs): intermediate behavior | cell survival in ouabain-containing media compared with HeLa (HEK293): Identical results
